Measurements taken from ChEMBL document CHEMBL3603739, “Novel diazabicycloalkane delta opioid agonists” (Bioorg Med Chem, 2015).
Activity calls are given as the source filed them. The calls are words filed in the database; no cut-off is given here.

How the values were obtained:
[1] = biological target: Delta-type opioid receptor (Mus musculus, UniProt P32300); experiment: Displacement of [3H]DPDPE from delta opioid receptor in mouse brain membranes by liquid scintillation counting method; format: cell membranes, Membrane
[2] = biological target: Delta-type opioid receptor (Mus musculus) (UniProt P32300); experiment: Agonist activity at delta opioid receptor in mouse vas deferens assessed as reduction in electric field stimulation-induced twitch contractions amplitude
[3] = biological target: Delta-type opioid receptor (Mus musculus) (UniProt P32300); experiment: Agonist activity at delta opioid receptor in mouse vas deferens assessed as reduction in electric field stimulation-induced twitch contractions amplitude in presence of 1 nM natrindole
[4] = species: Mus musculus; experiment: Selectivity index, ratio of Ki for kappa opioid receptor in mouse brain membranes to Ki for delta opioid receptor in mouse brain membranes; format: cell membranes
[5] = system: NG108-15; experiment: Intrinsic agonist activity at delta opioid receptor in mouse/rat NG108-15 cells assessed as increase in ERK1/2 phosphorylation at 1 to 50 uM incubated for 20 mins by Western blot method; format: cell-based
[6] = biological target: Delta-type opioid receptor (Mus musculus) (UniProt P32300); experiment: Agonist activity at delta opioid receptor in mouse vas deferens assessed as reduction in electric field stimulation-induced twitch contractions amplitude relative to control
[7] = biological target: Kappa-type opioid receptor (Mus musculus, UniProt P33534); experiment: Displacement of [3H]U-69,593 from kappa opioid receptor in mouse brain membranes by liquid scintillation counting method; format: cell membranes, Membrane
[8] = biological target: Mu-type opioid receptor (Mus musculus, UniProt P42866); experiment: Displacement of [3H]DAMGO from mu opioid receptor in mouse brain membranes by liquid scintillation counting method; format: cell membranes, Membrane
[9] = species: Mus musculus; experiment: Selectivity index, ratio of Ki for mu opioid receptor in mouse brain membranes to Ki for delta opioid receptor in mouse brain membranes; format: cell membranes
[10] = system: NG108-15; experiment: Intrinsic agonist activity at delta opioid receptor in mouse/rat NG108-15 cells assessed as increase in ERK1/2 phosphorylation at 0.1 to 5 uM incubated for 20 mins by Western blot method; format: cell-based
[11] = system: NG108-15; experiment: Intrinsic agonist activity at delta opioid receptor in mouse/rat NG108-15 cells assessed as increase in ERK1/2 phosphorylation At 1 nM pre-treated with 500 nM opioid antagonist naloxone for 5 mins followed by compound exposure for 20 mins by Western blot method; format: cell-based
[12] = system: NG108-15; experiment: Intrinsic agonist activity at delta opioid receptor in mouse/rat NG108-15 cells assessed as increase in ERK1/2 phosphorylation at 50 nM pre-treated with 500 nM opioid antagonist naloxone for 5 mins followed by compound exposure for 20 mins by Western blot method; format: cell-based
[13] = system: NG108-15; experiment: Intrinsic agonist activity at delta opioid receptor in mouse/rat NG108-15 cells assessed as increase in ERK1/2 phosphorylation At 5 nM pre-treated with 500 nM opioid antagonist naloxone for 5 mins followed by compound exposure for 20 mins by Western blot method; format: cell-based
[14] = system: NG108-15; experiment: Toxicity in mouse/rat NG108-15 cells; format: cell-based
[15] = system: NG108-15; experiment: Intrinsic agonist activity at delta opioid receptor in mouse/rat NG108-15 cells assessed as increase in ERK1/2 phosphorylation at 0.1 to 100 uM iincubated for 20 mins by Western blot method; format: cell-based
[16] = system: NG108-15; experiment: Intrinsic agonist activity at delta opioid receptor in mouse/rat NG108-15 cells assessed as increase in ERK1/2 phosphorylation by Western blot method; format: cell-based; conditions: TDE = time-dependent effect
[17] = system: NG108-15; experiment: Intrinsic agonist activity at delta opioid receptor in mouse/rat NG108-15 cells assessed as increase in ERK1/2 phosphorylation at 10 nM pre-treated with 500 nM opioid antagonist naloxone for 5 mins followed by compound exposure for 20 mins by Western blot method; format: cell-based

Sequence of Kappa-type opioid receptor (P33534 whole entry): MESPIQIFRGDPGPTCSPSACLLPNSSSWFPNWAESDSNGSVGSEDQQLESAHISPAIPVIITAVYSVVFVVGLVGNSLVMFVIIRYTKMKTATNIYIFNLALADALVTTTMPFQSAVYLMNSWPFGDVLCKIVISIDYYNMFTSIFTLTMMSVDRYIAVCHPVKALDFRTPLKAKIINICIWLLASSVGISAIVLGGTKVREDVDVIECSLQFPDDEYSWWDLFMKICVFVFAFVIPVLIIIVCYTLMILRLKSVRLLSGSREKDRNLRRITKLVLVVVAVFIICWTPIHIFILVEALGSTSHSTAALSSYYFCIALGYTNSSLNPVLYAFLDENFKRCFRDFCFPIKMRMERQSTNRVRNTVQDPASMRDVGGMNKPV
Sequence of Delta-type opioid receptor (Mus musculus) (P32300 whole entry): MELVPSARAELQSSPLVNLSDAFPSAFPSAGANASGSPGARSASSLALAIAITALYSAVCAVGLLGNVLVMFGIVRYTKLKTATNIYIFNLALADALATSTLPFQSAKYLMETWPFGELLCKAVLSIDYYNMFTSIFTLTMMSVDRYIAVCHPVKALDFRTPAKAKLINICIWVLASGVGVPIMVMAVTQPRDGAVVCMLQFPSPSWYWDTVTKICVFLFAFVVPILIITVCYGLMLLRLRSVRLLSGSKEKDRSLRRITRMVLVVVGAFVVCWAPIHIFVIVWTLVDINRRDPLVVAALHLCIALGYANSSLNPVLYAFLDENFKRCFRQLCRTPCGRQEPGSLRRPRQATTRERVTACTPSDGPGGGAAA
Sequence of Delta-type opioid receptor (P32300 whole entry): as above
Sequence of Mu-type opioid receptor (P42866 whole entry): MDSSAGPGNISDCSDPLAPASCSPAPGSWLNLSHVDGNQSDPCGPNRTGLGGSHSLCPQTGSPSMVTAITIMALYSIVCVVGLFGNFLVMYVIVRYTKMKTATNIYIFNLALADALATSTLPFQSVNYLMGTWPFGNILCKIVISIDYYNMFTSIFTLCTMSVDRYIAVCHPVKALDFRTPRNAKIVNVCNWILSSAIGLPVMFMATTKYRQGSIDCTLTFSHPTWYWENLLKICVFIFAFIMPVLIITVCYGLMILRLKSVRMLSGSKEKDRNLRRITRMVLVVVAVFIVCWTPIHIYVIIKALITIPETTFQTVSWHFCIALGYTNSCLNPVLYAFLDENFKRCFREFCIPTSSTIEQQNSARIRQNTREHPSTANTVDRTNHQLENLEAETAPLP

In the case of `C=CCN1CC2CC(C1)N2C(c1ccc(C(=O)N(CC)CC)cc1)c1cccc(OC)c1` (racemic), the Ki [1] is reported as 1.76 nM, the Activity [2] is reported as “Active” and the Activity [3] is reported as “inactive”. The Ratio Ki [4] was 2270, the Activity [5] was “Active” and the Imax [6] was 90%. The Ki [7] was 4000 nM, the Ki [8] was 1150 nM and the Ratio Ki [9] was 653.

`C=CCN1C2CCC1CN(C(c1ccc(C(=O)N(CC)CC)cc1)c1cccc(OC)c1)CC2` (mixture of isomers) was tested, and the Activity [10] was “Active”, the Ki [1] was 1.84 nM and the Ratio Ki [4] was 1330. For the same compound, the Ki [7] was 2450 nM, the Activity [11] was “Active” and the Ki [8] was 183 nM. For the same compound, the Ratio Ki [9] was 99.5.

In the case of `C=CCN1C2CCCC1CN(C(c1ccc(C(=O)N(CC)CC)cc1)c1cccc(OC)c1)CC2` (mixture of isomers), the Ki [1] is reported as 9.1 nM, the Activity [2] is reported as “Active” and the Activity [3] is reported as “inactive”. The Ratio Ki [4] was 467, the Activity [5] was “Active” and the Activity [12] was “Active”. It also gave an Imax [6] of 90%, a Ki [7] of 4250 nM and a Ki [8] of 950 nM. The Ratio Ki [9] was 104.

`C=CCN1CC2CCC(C1)N2C(c1ccc(C(=O)N(CC)CC)cc1)c1cccc(OC)c1` (racemic) was tested, and the Activity [10] was “Active”, the Ki [1] was 0.34 nM and the Activity [2] was “Active”. The Activity [3] was “inactive”, the Ratio Ki [4] was 882 and the Imax [6] was 90%. The Ki [7] was 300 nM, the Ki [8] was 3830 nM and the Activity [13] was “Active”. It also gave a Ratio Ki [9] of 11300.

With `C=CCN1CC2CCCC(C1)N2C(c1ccc(C(=O)N(CC)CC)cc1)c1cccc(OC)c1` (racemic) the Ki [1] was 1.88 nM, the Ratio Ki [4] was 1170 and the Activity [5] was “Active”. The Activity [12] was “Active”, the Ki [7] was 2200 nM and the Ki [8] was 2270 nM. The Ratio Ki [9] was 1210.

`C=CCN1C[C@H](C)N([C@H](c2ccc(C(=O)N(CC)CC)cc2)c2cccc(OC)c2)C[C@H]1C` [SNC-80] was tested, and the Activity [2] was “Active”, the Activity [14] was “Toxic” and the Activity [3] was “inactive”. For the same compound, the Activity [15] was “Dose-dependent effect”, the Activity [16] was “tde” and the Activity [17] was “inactive”.
